Experimental data as given in patent EP0431784A2, “Methods for treating retroviral infection” (ELI LILLY AND COMPANY, priority 1989, dated 1991).
Where a SMILES comes first, the peptide text is derived from it. [ ]: non-standard residue; d: D form. Phe(4-NH2) = Nc1ccc(C[C@H](N)C(=O)O)cc1; Sta = CC(C)C[C@H](N)[C@@H](O)CC(=O)O

System: HIV-1 protease
Settings: for potency relative to the P-9 peptide: protease inhibitor potency compared with P-9 as standard
Procedure: A 100 µl control reaction was established containing 10 to 20 µI of crude protease, about 2 µl of the gag supernatant and final concentrations of 50 mM MES Buffer (pH 5.5), 1 mM DTT and 25 mM NaCI. Inhibition assays were performed by pre-incubating the crude protease with an inhibitory compound at room temperature for about 30 minutes before adding the gag supernatant to the reaction. Both the control and the experimental reactions were incubated from three to sixteen hours at 37° C. The reactions were then electrophoresed and blotted onto nitrocellulose filters. Monoclonal antibodies which recognize epitopes on p24 and p17 viral proteins were contacted with the filter then visualized using standard biotinylation or radionuclear techniques. Compounds which prevented the maturation of the gag polypeptide into mature viral proteins p24 and p17 were then ranked according to their HIV-1 protease inhibitory activity.
About 10 to 20 µl of the crude protease lysate was mixed with about 2 µl of the gag supernatant. The mixture was then brought to a total volume of 100 µl by the addition of distilled water, MES buffer (2-(N-Morpholino]ethanesulfonic acid) (pH 5.5 to a total concentration of 50 mM), DTT (dithiolthreitol) (to a total concentration of 1 mM) and NaCl (to a total concentration of 25 mM). This reaction mixture was mixed gently then incubated from 3 hours to overnight at 37° C.
Next, about 25 µl of the reaction was mixed with loading buffer and subjected to polyacrylamide gel electrophoresis on a 12.5% Laemmli gel under reducing conditions. The proteins were transferred onto a nitrocellulose filter using standard "Western Blot" electrophoresis at 500 mAmps for 35 minutes at room temperature. The filter was air-dried, then non-specific immunoreaction was blocked by washing the filter for 30 minutes at 4° C in a solution of 3% non-fat dry milk powder in phosphate buffered saline (PBS).
Monoclonal antibodies against p17 and/or p24 (available from Dupont, Wilmington, Delaware) were added to about 40 ml of the 3% milk/PBS solution to a final concentration of 2 µg/ml. The nitrocellulose filter was added to the antisera solution and slowly rocked for 2 hours at 4 C. The filter then was removed and washed 5 times with PBS, then the maturation of the gag gene was determined by reaction with 1^125- labeled protein A or by reaction with biotinylated anti-mouse lgG antibodies (Vecta Stain@).
To run the I^125-labeled protein A reaction, about 10 µCi of I^125-labeled protein A was added to 100 ml of the 3% milk/PBS solution. The filter was rocked in this solution for 2 hours at 4° C, washed three times with PBS, then two times with PBS and 0.1% Tween 20. The filter was then air-dried and exposed to x-ray film for autoradiography.
The Vecta Stain@ (Vector Laboratories, Burlingome, California) procedure was performed according to the manufacturer's recommendations. Four drops of the biotinylated IgG was added to 40 mls of the 3% Milk/PBS solution, then the filter was rocked in this solution for 60 minutes at 4° C. The filter was washed five times with PBS, then rocked for 30 to 60 minutes at 4 C in Reagent ABC. Reagent ABC was prepared by adding 4 drops of Reagent A (Avidin DH) and 4 drops of Reagent B (biotinylated peroxidase) to 20 ml of 3% Milk/PBS. The filter was then washed five times with PBS, then the filter was developed by washing it for 5 to 10 minutes in 10 ml of PBS containing 0.02% H202 and 10 ml of 4-chloro-1 naphthol. When the color was fully developed, the filter was washed with distilled water and air-dried.
Following the procedure, it is simple to determine the activity of the HIV-1 protease encoded on plasmid pHP10D and produced in E. coli cells.

Row | SMILES | HIV protease inhibitory activity (result in words) | potency relative to the P-9 peptide | further results
1 | CC(=O)N[C@H](C(=O)N[C@@H](CC(C)C)[C@@H](O)CC(=O)N[C@@H](CC(C)C)C(=O)N[C@@H](Cc1ccccc1)C(N)=O)C(C)C [Ac-Val-Statine-Leu-Phe-NH2] (Ac-V[Sta]LF-NH2) | inactive | – | –
2 | COc1ccc(C[C@H](NC(C)=O)C(=O)N[C@@H](Cc2ccccc2)C(=O)N[C@H](C(=O)N[C@@H](CC(C)C)[C@@H](O)CC(=O)N[C@@H](CC(C)C)C(=O)N[C@@H](Cc2ccccc2)C(=O)N[C@@H](Cc2ccc(O)cc2)C(=O)N[C@@H](CC(C)C)C(N)=O)C(C)C)cc1 [Ac-YOM-Phe-Val-Statine-Leu-Phe-Tyr-Leu-NH2] (Ac-Y(Me)FV[Sta]LFYL-NH2) | totally inactive | – | –
3 | CC(C)C[C@H](NC(=O)C[C@H](O)[C@H](CC(C)C)NC(=O)[C@@H](NC(=O)[C@H](Cc1ccccc1)NC(=O)[C@@H]1CCCN1C(=O)[C@H](Cc1ccc(N)cc1)NC(=O)[C@@H]1CCCN1)C(C)C)C(=O)N[C@@H](Cc1ccccc1)C(=O)N[C@@H](Cc1ccc(N)cc1)C(N)=O [P-1, H-Pro-paF-Pro-Phe-Val-Statine-Leu-Phe-paF-NH2] (H-P[Phe(4-NH2)]PFV[Sta]LF[Phe(4-NH2)]-NH2) | – | – | potency relative to the R,S-diastereomer (P-28) ((S,S) Statine versus R,S-Sta peptide): 20 times
4 | COc1ccc(C[C@H](NC(C)=O)C(=O)N2CCC[C@H]2C(=O)N[C@@H](Cc2ccccc2)C(=O)N[C@H](C(=O)N[C@@H](CC(C)C)[C@@H](O)CC(=O)N[C@@H](CC(C)C)C(=O)N[C@@H](Cc2ccccc2)C(N)=O)C(C)C)cc1 [P-9, Ac-YOM-Pro-Phe-Val-Statine-Leu-Phe-NH2] (Ac-Y(Me)PFV[Sta]LF-NH2) | – | – | potency relative to P-7 (protease inhibitor potency compared with P-7): increases the potency three to four times
5 | COc1ccc(C[C@H](NC(=O)[C@H](Cc2ccc(O)cc2)NC(=O)CNC(C)=O)C(=O)N2CCC[C@H]2C(=O)N[C@@H](Cc2ccccc2)C(=O)N[C@H](C(=O)N[C@@H](CC(C)C)[C@@H](O)CC(=O)N[C@@H](CC(C)C)C(=O)N[C@@H](Cc2ccccc2)C(N)=O)C(C)C)cc1 [P-29, Ac-Gly-Tyr-YOM-Pro-Phe-Val-Statine-Leu-Phe-NH2] (Ac-GYY(Me)PFV[Sta]LF-NH2) | – | three times more potent | –
6 | COc1ccc(C[C@H](NC(C)=O)C(=O)N2CCC[C@H]2C(=O)N[C@@H](Cc2ccccc2)C(=O)N[C@H](C(=O)N[C@@H](CC(C)C)[C@@H](O)CC(=O)N[C@@H](CC(C)C)C(=O)N[C@@H](Cc2ccccc2)C(=O)N[C@@H](Cc2ccc(O)cc2)C(=O)N[C@@H](CC(C)C)C(N)=O)C(C)C)cc1 [P-30, Ac-YOM-Pro-Phe-Val-Statine-Leu-Phe-Tyr-Leu-NH2] (Ac-Y(Me)PFV[Sta]LFYL-NH2) | – | about 1.5 times | –
